Test results from patent US6613340B2, “Substantive hydrophobic cationic UV-absorbing compounds” (Galaxy Surfactants Ltd., priority 2001, dated 2003).

Assay: UV absorption (molar extinction coefficient)
Format: physicochemical
Settings: in methanol
Procedure: Ethyl p-methoxy cinnamate (206.0 g, 1.0 mole), N,N-dimethylpropyldiamine (306.0 g, 3.0 mole) and sodium methoxide (2.0 g) were charged in a pressure reactor. The air inside the reactor was flushed out by purging of nitrogen. The reaction mixture was then stirred at 180° C. (this generated pressure of 18 kg/cm^2) for 36 hours. The progress of reaction was monitored by disappearance of ethyl p-methoxy cinnamate on chromatography (TLC and HPLC). The TLC was performed on aluminium coated silica gel plates (Merck-60-F-254) and viewed with a UV lamp at 254 nm. HPLC was performed using reversed phase technique on a C-18 bonded (octadecyl silane) column and 60% aqueous methanol as mobile phase (1.0 ml/min) and detection at 280 nm. The excess amine was removed under vacuum.

Row | SMILES | molar extinction coefficient, ε (at 290 nm, in M-1cm-1 (unit assumed)) | molar extinction coefficient, ε (at λmax 310 nm)
1 | COc1ccc(C=CC(=O)NCCCN(C)C)cc1 [p-methoxy cinnamidopropyldimethylamine] | 24,224 | –
2 | CCCCCCCCCCCC[N+](C)(C)CCCNC(=O)C=Cc1ccc(OC)cc1.Cc1ccc(S(=O)(=O)[O-])cc1 [p-methoxy cinnamidopropyldimethyllauryl ammonium tosylate] | – | 25,000
